What was measured:
BxPC-3 = test: Inhibition of tumor cell proliferation, CellTiter-Glo, BxPC-3; type: cell-based; settings: compound concentration 50 μM, 72 hours
Outline: (§1)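 Compound tested at 50 μM for 72 h, read by CellTiter-Glo. Survival rate = (treated−blank)/(control−blank) RLU ×100, binned as +++ ≤30%, ++ >30-≤60%, + 60-<90%. Seeding 2000-10000 cells/well depending on growth rate.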

SU-DHL6 = test: Inhibition of tumor cell proliferation, CellTiter-Glo, SU-DHL6; type: cell-based; settings: compound concentration 50 μM, 72 hours
Outline: as §1

K562 = test: Inhibition of tumor cell proliferation, CellTiter-Glo, K562; type: cell-based; settings: compound concentration 50 μM, 72 hours
Outline: as §1

RPMI-8226 = test: Inhibition of tumor cell proliferation, CellTiter-Glo, RPMI-8226; type: cell-based; settings: compound concentration 50 μM, 72 hours
Outline: as §1

LC3B = LC3B (Homo sapiens (Human), UniProt Q9GZQ8); test: Fluorescence polarization experiment targeting LC3B (GST-LC3B with FITC-labeled peptide); settings: GST-LC3B 180 nM, FITC-labeled peptide 18 nM, 25° C.
A549 = test: Inhibition of tumor cell proliferation, CellTiter-Glo, A549; type: cell-based; settings: compound concentration 50 μM, 72 hours
Outline: as §1

MDA-MB-453 = test: Inhibition of tumor cell proliferation, CellTiter-Glo, MDA-MB-453; type: cell-based; settings: compound concentration 50 μM, 72 hours
Outline: as §1

O=C1CCC(N2Cc3c(NC=C4C(=O)CC(c5c(C(F)(F)F)ccc(Cl)c5F)CC4=O)cccc3C2=O)C(=O)N1 (stereo not drawn) [Compound 142]
Inhibitory activity against proliferation (cell survival rate) BxPC-3 (BxPC-3): + (60≤survival rate (%)<90)
Inhibitory activity against proliferation (cell survival rate) SU-DHL6 (SU-DHL6): +++ (survival rate (%)≤30)
Inhibitory activity against proliferation (cell survival rate) K562 (K562): +++ (survival rate (%)≤30)
Inhibitory activity against proliferation (cell survival rate) RPMI-8226 (RPMI-8226): +++ (survival rate (%)≤30)
IC50 (LC3B): < 3 µM
Inhibitory activity against proliferation (cell survival rate) A549 (A549): + (60≤survival rate (%)<90)
Inhibitory activity against proliferation (cell survival rate) MDA-MB-453 (MDA-MB-453): +++ (survival rate (%)≤30)

COc1cc(Br)c(C2CC(=O)C(=CNc3cccc4c3CN(C3CCC(=O)NC3=O)C4=O)C(=O)C2)cc1OC (stereo not drawn) [Compound 143]
Inhibitory activity against proliferation (cell survival rate) BxPC-3 (BxPC-3): + (60≤survival rate (%)<90)
Inhibitory activity against proliferation (cell survival rate) SU-DHL6 (SU-DHL6): +++ (survival rate (%)≤30)
Inhibitory activity against proliferation (cell survival rate) K562 (K562): ++ (30<survival rate (%)≤60)
Inhibitory activity against proliferation (cell survival rate) RPMI-8226 (RPMI-8226): ++ (30<survival rate (%)≤60)
IC50 (LC3B): < 3 µM
Inhibitory activity against proliferation (cell survival rate) A549 (A549): +++ (survival rate (%)≤30)
Inhibitory activity against proliferation (cell survival rate) MDA-MB-453 (MDA-MB-453): +++ (survival rate (%)≤30)

O=C1CCC(N2Cc3c(NC=C4C(=O)CC(c5cc(C(F)(F)F)ccc5Cl)CC4=O)cccc3C2=O)C(=O)N1 (stereo not drawn) [Compound 144]
Inhibitory activity against proliferation (cell survival rate) BxPC-3 (BxPC-3): + (60≤survival rate (%)<90)
Inhibitory activity against proliferation (cell survival rate) SU-DHL6 (SU-DHL6): +++ (survival rate (%)≤30)
Inhibitory activity against proliferation (cell survival rate) K562 (K562): +++ (survival rate (%)≤30)
Inhibitory activity against proliferation (cell survival rate) RPMI-8226 (RPMI-8226): +++ (survival rate (%)≤30)
IC50 (LC3B): < 3 µM
Inhibitory activity against proliferation (cell survival rate) A549 (A549): + (60≤survival rate (%)<90)
Inhibitory activity against proliferation (cell survival rate) MDA-MB-453 (MDA-MB-453): +++ (survival rate (%)≤30)

O=C1CCC(N2Cc3c(NC=C4C(=O)CC(c5ccc(Cl)cc5F)CC4=O)cccc3C2=O)C(=O)N1 (stereo not drawn) [Compound 145]
Inhibitory activity against proliferation (cell survival rate) BxPC-3 (BxPC-3): + (60≤survival rate (%)<90)
Inhibitory activity against proliferation (cell survival rate) SU-DHL6 (SU-DHL6): +++ (survival rate (%)≤30)
Inhibitory activity against proliferation (cell survival rate) K562 (K562): ++ (30<survival rate (%)≤60)
Inhibitory activity against proliferation (cell survival rate) RPMI-8226 (RPMI-8226): ++ (30<survival rate (%)≤60)
IC50 (LC3B): < 3 µM
Inhibitory activity against proliferation (cell survival rate) A549 (A549): +++ (survival rate (%)≤30)
Inhibitory activity against proliferation (cell survival rate) MDA-MB-453 (MDA-MB-453): +++ (survival rate (%)≤30)

O=C1CCC(N2Cc3c(NC=C4C(=O)CC(c5cccc(Cl)c5F)CC4=O)cccc3C2=O)C(=O)N1 (stereo not drawn) [Compound 146]
Inhibitory activity against proliferation (cell survival rate) BxPC-3 (BxPC-3): + (60≤survival rate (%)<90)
Inhibitory activity against proliferation (cell survival rate) SU-DHL6 (SU-DHL6): +++ (survival rate (%)≤30)
Inhibitory activity against proliferation (cell survival rate) K562 (K562): +++ (survival rate (%)≤30)
Inhibitory activity against proliferation (cell survival rate) RPMI-8226 (RPMI-8226): +++ (survival rate (%)≤30)
IC50 (LC3B): < 3 µM
Inhibitory activity against proliferation (cell survival rate) A549 (A549): + (60≤survival rate (%)<90)
Inhibitory activity against proliferation (cell survival rate) MDA-MB-453 (MDA-MB-453): +++ (survival rate (%)≤30)

O=C1CCC(N2Cc3c(NC=C4C(=O)CC(c5c(F)cccc5Cl)CC4=O)cccc3C2=O)C(=O)N1 (stereo not drawn) [Compound 147]
Inhibitory activity against proliferation (cell survival rate) BxPC-3 (BxPC-3): ++ (30<survival rate (%)≤60)
Inhibitory activity against proliferation (cell survival rate) SU-DHL6 (SU-DHL6): +++ (survival rate (%)≤30)
Inhibitory activity against proliferation (cell survival rate) K562 (K562): +++ (survival rate (%)≤30)
Inhibitory activity against proliferation (cell survival rate) RPMI-8226 (RPMI-8226): +++ (survival rate (%)≤30)
IC50 (LC3B): < 3 µM
Inhibitory activity against proliferation (cell survival rate) A549 (A549): +++ (survival rate (%)≤30)
Inhibitory activity against proliferation (cell survival rate) MDA-MB-453 (MDA-MB-453): ++ (30<survival rate (%)≤60)

O=C1CCC(N2Cc3c(NC=C4C(=O)CC(c5cc(O)ccc5Br)CC4=O)cccc3C2=O)C(=O)N1 (stereo not drawn) [Compound 148]
Inhibitory activity against proliferation (cell survival rate) BxPC-3 (BxPC-3): + (60≤survival rate (%)<90)
Inhibitory activity against proliferation (cell survival rate) SU-DHL6 (SU-DHL6): +++ (survival rate (%)≤30)
Inhibitory activity against proliferation (cell survival rate) K562 (K562): ++ (30<survival rate (%)≤60)
Inhibitory activity against proliferation (cell survival rate) RPMI-8226 (RPMI-8226): ++ (30<survival rate (%)≤60)
IC50 (LC3B): < 3 µM
Inhibitory activity against proliferation (cell survival rate) A549 (A549): +++ (survival rate (%)≤30)
Inhibitory activity against proliferation (cell survival rate) MDA-MB-453 (MDA-MB-453): +++ (survival rate (%)≤30)

O=C1CCC(N2Cc3c(NC=C4C(=O)CC(c5cc6[nH]ccc6cc5Br)CC4=O)cccc3C2=O)C(=O)N1 (stereo not drawn) [Compound 149]
Inhibitory activity against proliferation (cell survival rate) BxPC-3 (BxPC-3): + (60≤survival rate (%)<90)
Inhibitory activity against proliferation (cell survival rate) SU-DHL6 (SU-DHL6): +++ (survival rate (%)≤30)
Inhibitory activity against proliferation (cell survival rate) K562 (K562): +++ (survival rate (%)≤30)
Inhibitory activity against proliferation (cell survival rate) RPMI-8226 (RPMI-8226): +++ (survival rate (%)≤30)
IC50 (LC3B): < 3 µM
Inhibitory activity against proliferation (cell survival rate) A549 (A549): + (60≤survival rate (%)<90)
Inhibitory activity against proliferation (cell survival rate) MDA-MB-453 (MDA-MB-453): +++ (survival rate (%)≤30)

O=C1CCC(N2Cc3c(NC=C4C(=O)CC(c5c[nH]c6cccc(Cl)c56)CC4=O)cccc3C2=O)C(=O)N1 (stereo not drawn) [Compound 150]
Inhibitory activity against proliferation (cell survival rate) BxPC-3 (BxPC-3): + (60≤survival rate (%)<90)
Inhibitory activity against proliferation (cell survival rate) SU-DHL6 (SU-DHL6): +++ (survival rate (%)≤30)
Inhibitory activity against proliferation (cell survival rate) K562 (K562): ++ (30<survival rate (%)≤60)
Inhibitory activity against proliferation (cell survival rate) RPMI-8226 (RPMI-8226): ++ (30<survival rate (%)≤60)
IC50 (LC3B): < 3 µM
Inhibitory activity against proliferation (cell survival rate) A549 (A549): +++ (survival rate (%)≤30)
Inhibitory activity against proliferation (cell survival rate) MDA-MB-453 (MDA-MB-453): +++ (survival rate (%)≤30)

O=C1CCC(N2Cc3c(NC=C4C(=O)CC(c5cc6[nH]ccc6cc5Cl)CC4=O)cccc3C2=O)C(=O)N1 (stereo not drawn) [Compound 151]
Inhibitory activity against proliferation (cell survival rate) BxPC-3 (BxPC-3): + (60≤survival rate (%)<90)
Inhibitory activity against proliferation (cell survival rate) SU-DHL6 (SU-DHL6): +++ (survival rate (%)≤30)
Inhibitory activity against proliferation (cell survival rate) K562 (K562): +++ (survival rate (%)≤30)
Inhibitory activity against proliferation (cell survival rate) RPMI-8226 (RPMI-8226): +++ (survival rate (%)≤30)
IC50 (LC3B): < 3 µM
Inhibitory activity against proliferation (cell survival rate) A549 (A549): + (60≤survival rate (%)<90)
Inhibitory activity against proliferation (cell survival rate) MDA-MB-453 (MDA-MB-453): +++ (survival rate (%)≤30)

O=C1CCC(N2Cc3c(NC=C4C(=O)CC(c5c(Cl)ccc6[nH]ccc56)CC4=O)cccc3C2=O)C(=O)N1 (stereo not drawn) [Compound 152]
Inhibitory activity against proliferation (cell survival rate) BxPC-3 (BxPC-3): ++ (30<survival rate (%)≤60)
Inhibitory activity against proliferation (cell survival rate) SU-DHL6 (SU-DHL6): +++ (survival rate (%)≤30)
Inhibitory activity against proliferation (cell survival rate) K562 (K562): +++ (survival rate (%)≤30)
Inhibitory activity against proliferation (cell survival rate) RPMI-8226 (RPMI-8226): +++ (survival rate (%)≤30)
IC50 (LC3B): < 3 µM
Inhibitory activity against proliferation (cell survival rate) A549 (A549): +++ (survival rate (%)≤30)
Inhibitory activity against proliferation (cell survival rate) MDA-MB-453 (MDA-MB-453): ++ (30<survival rate (%)≤60)

COc1ccc(C2CC(=O)C(=CNc3cccc4c3CN(C3CCC(=O)NC3=O)C4=O)C(=O)C2)c(F)c1F (stereo not drawn) [Compound 153]
Inhibitory activity against proliferation (cell survival rate) BxPC-3 (BxPC-3): + (60≤survival rate (%)<90)
Inhibitory activity against proliferation (cell survival rate) SU-DHL6 (SU-DHL6): +++ (survival rate (%)≤30)
Inhibitory activity against proliferation (cell survival rate) K562 (K562): ++ (30<survival rate (%)≤60)
Inhibitory activity against proliferation (cell survival rate) RPMI-8226 (RPMI-8226): ++ (30<survival rate (%)≤60)
IC50 (LC3B): < 3 µM
Inhibitory activity against proliferation (cell survival rate) A549 (A549): +++ (survival rate (%)≤30)
Inhibitory activity against proliferation (cell survival rate) MDA-MB-453 (MDA-MB-453): +++ (survival rate (%)≤30)

O=C1CCC(N2Cc3c(NC=C4C(=O)CC(c5c(F)c(Cl)cc(Cl)c5Cl)CC4=O)cccc3C2=O)C(=O)N1 (stereo not drawn) [Compound 154]
Inhibitory activity against proliferation (cell survival rate) BxPC-3 (BxPC-3): + (60≤survival rate (%)<90)
Inhibitory activity against proliferation (cell survival rate) SU-DHL6 (SU-DHL6): +++ (survival rate (%)≤30)
Inhibitory activity against proliferation (cell survival rate) K562 (K562): +++ (survival rate (%)≤30)
Inhibitory activity against proliferation (cell survival rate) RPMI-8226 (RPMI-8226): +++ (survival rate (%)≤30)
IC50 (LC3B): < 3 µM
Inhibitory activity against proliferation (cell survival rate) A549 (A549): + (60≤survival rate (%)<90)
Inhibitory activity against proliferation (cell survival rate) MDA-MB-453 (MDA-MB-453): +++ (survival rate (%)≤30)

O=C1CCC(N2Cc3c(NC=C4C(=O)CC(c5ccccc5N5CCOCC5)CC4=O)cccc3C2=O)C(=O)N1 (stereo not drawn) [Compound 155]
Inhibitory activity against proliferation (cell survival rate) BxPC-3 (BxPC-3): + (60≤survival rate (%)<90)
Inhibitory activity against proliferation (cell survival rate) SU-DHL6 (SU-DHL6): +++ (survival rate (%)≤30)
Inhibitory activity against proliferation (cell survival rate) K562 (K562): ++ (30<survival rate (%)≤60)
Inhibitory activity against proliferation (cell survival rate) RPMI-8226 (RPMI-8226): ++ (30<survival rate (%)≤60)
IC50 (LC3B): < 3 µM
Inhibitory activity against proliferation (cell survival rate) A549 (A549): +++ (survival rate (%)≤30)
Inhibitory activity against proliferation (cell survival rate) MDA-MB-453 (MDA-MB-453): +++ (survival rate (%)≤30)

CC(=O)Nc1ccccc1C1CC(=O)C(=CNc2cccc3c2CN(C2CCC(=O)NC2=O)C3=O)C(=O)C1 (stereo not drawn) [Compound 156]
Inhibitory activity against proliferation (cell survival rate) BxPC-3 (BxPC-3): + (60≤survival rate (%)<90)
Inhibitory activity against proliferation (cell survival rate) SU-DHL6 (SU-DHL6): +++ (survival rate (%)≤30)
Inhibitory activity against proliferation (cell survival rate) K562 (K562): +++ (survival rate (%)≤30)
Inhibitory activity against proliferation (cell survival rate) RPMI-8226 (RPMI-8226): +++ (survival rate (%)≤30)
IC50 (LC3B): < 3 µM
Inhibitory activity against proliferation (cell survival rate) A549 (A549): + (60≤survival rate (%)<90)
Inhibitory activity against proliferation (cell survival rate) MDA-MB-453 (MDA-MB-453): +++ (survival rate (%)≤30)
